One test deals with T1, HDAC6 (Homo sapiens, UniProt Q9UBN7).
T1 sequence (Q9UBN7 1-1215): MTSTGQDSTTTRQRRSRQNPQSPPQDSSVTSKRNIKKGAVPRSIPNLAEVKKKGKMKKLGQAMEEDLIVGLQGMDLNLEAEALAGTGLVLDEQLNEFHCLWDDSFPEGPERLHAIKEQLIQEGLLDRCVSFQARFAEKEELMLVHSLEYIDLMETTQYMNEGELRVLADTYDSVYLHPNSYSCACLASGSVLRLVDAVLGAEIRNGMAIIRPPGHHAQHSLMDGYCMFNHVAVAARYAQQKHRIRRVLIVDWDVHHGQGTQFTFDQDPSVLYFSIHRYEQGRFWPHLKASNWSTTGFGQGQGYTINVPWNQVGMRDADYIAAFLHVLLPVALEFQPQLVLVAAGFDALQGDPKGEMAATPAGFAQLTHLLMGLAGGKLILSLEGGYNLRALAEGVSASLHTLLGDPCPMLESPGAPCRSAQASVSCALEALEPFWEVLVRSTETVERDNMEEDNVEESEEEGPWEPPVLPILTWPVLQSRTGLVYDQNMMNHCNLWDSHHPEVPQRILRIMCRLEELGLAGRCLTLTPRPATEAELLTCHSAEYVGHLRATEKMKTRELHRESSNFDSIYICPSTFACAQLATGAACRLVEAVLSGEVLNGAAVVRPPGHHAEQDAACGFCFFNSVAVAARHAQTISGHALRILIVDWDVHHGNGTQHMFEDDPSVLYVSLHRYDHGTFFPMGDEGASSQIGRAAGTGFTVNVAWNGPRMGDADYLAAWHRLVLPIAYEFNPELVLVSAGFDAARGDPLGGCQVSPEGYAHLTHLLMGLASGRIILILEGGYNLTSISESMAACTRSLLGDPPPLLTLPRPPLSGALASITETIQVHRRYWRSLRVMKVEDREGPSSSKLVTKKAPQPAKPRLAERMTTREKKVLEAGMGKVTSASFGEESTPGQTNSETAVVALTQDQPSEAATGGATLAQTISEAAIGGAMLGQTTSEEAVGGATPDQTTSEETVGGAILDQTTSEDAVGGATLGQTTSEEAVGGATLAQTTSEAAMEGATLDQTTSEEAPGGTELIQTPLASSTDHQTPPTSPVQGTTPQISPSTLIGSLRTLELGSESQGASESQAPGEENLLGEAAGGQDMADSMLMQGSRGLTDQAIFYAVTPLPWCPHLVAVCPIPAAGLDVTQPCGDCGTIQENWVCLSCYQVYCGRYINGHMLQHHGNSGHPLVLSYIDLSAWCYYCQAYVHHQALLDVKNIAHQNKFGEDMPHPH
Kind of test: Histone deacetylase activity, continuous trypsin-coupled assay. Format: biochemical. The note with it: trypsin-coupled fluorescence assay, acetyl-Gly-Ala-(N-acetyl-Lys)-AMC substrate. As for the experimental part:
(§1) HDAC activity is measured using a continuous trypsin-coupled assay that has been described in detail previously (US 20070281934; Schultz et. al., Biochemistry, 43 (34), 11083-11091, 2004; Kim et al. (2006), Methods Mol. Biol., 325:273-283). For inhibitor characterization, measurements are performed in a reaction volume of 100 µL using 96-well assay plates in a fluorescence plate reader. For each isozyme, the HDAC protein in reaction buffer (50 mM HEPES, 100 mM KCl, 0.001% Tween-20, 5% DMSO, pH 7.4, supplemented with bovine serum albumin at concentrations of 0-0.05%, is mixed with inhibitor at various concentrations and allowed to incubate for 15 minutes. Trypsin is added to a final concentration of 50 nM, and acetyl-Gly-Ala-(N-acetyl-Lys)-AMC is added to a final concentration of 25-100 μM to initiate the reaction. After a 30 minute lag time, the fluorescence is measured over a 30 minute time frame using an excitation wavelength of 355 nm and a detection wavelength of 460 nm. The increase in fluorescence with time is used as the measure of the reaction rate. Inhibition constants Ki(app) were obtained using the program BatchKi (Biokin, Pullman, Wash.).

Another test deals with T2, HDAC8 (Homo sapiens, UniProt Q9BY41).
T2 sequence (Q9BY41 1-377): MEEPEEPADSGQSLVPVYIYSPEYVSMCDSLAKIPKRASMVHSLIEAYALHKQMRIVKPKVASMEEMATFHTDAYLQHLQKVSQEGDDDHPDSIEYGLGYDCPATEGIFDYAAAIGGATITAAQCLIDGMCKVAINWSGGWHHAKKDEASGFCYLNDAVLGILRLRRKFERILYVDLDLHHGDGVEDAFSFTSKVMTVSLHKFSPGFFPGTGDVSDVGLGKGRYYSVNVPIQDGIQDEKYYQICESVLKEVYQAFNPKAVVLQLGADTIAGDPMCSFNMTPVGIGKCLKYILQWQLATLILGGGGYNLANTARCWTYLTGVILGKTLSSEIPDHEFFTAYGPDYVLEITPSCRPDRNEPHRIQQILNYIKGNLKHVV
The description is as above. It counts as biochemical. To be noted: trypsin-coupled fluorescence assay, acetyl-Gly-Ala-(N-acetyl-Lys)-AMC substrate. As for the experimental part: as §1

The target of a further test is HDAC1 (Homo sapiens, UniProt Q13547). The test is described as above. Format: biochemical. To be noted: trypsin-coupled fluorescence assay, acetyl-Gly-Ala-(N-acetyl-Lys)-AMC substrate. How it is done:
as §1

A further test has as its system Jurkat cells. The test can be described thus: Cell proliferation assay, growth inhibition by Alamar Blue. Format: cell-based. The note with it: Homo sapiens, 72 h, treated with compound for 3 days. As for the experimental part:
Cell lines are obtained from DSMZ (Braunschweig, Germany) or ATCC (Manassas, Va.). Cells are grown in RPMI 1640 with 10% fetal bovine serum in a 5% CO2/air incubator at 37° C. Thapsigargin and BAPTA-AM are from Calbiochem (San Diego, Calif.). 3-((dimethylamino)methyl)-N-(2-(4-(hydroxycarbamoyl)phenoxy)ethyl)benzofuran-2-carboxamide is a broad-spectrum HDAC inhibitor which was synthesized as previously described. Other analogs with varying degrees of specificity towards the HDAC isoforms are synthesized as described herein.
Tumor cell lines and human umbilical vein endothelial cells (HUVEC) are cultured for at least two doubling times, and growth is monitored at the end of compound exposure using an Alamar Blue™ (Biosource, Camarillo, Calif.) fluorometric cell proliferation assay as recommended by the manufacturer. Compounds are assayed in triplicate wells in 96-well plates. The concentration required to inhibit cell growth by 50% (GI50) and 95% confidence intervals are estimated from nonlinear regression using a 4-parameter logistic equation. The effect of HDAC8 selective inhibitor compounds on cell proliferation in Jurkat cells is measured. Apoptosis is measured by Annexin-V flow cytommetry. Growth inhibiton iss measured by Alamar Blue assay. Cells are treated with compound for 3 days.
(Resazurin is reduced to fluorescent resorufin, in cell work by metabolically active cells.)

One may read the IC50 as the concentration needed to halve the response being measured. The low end stands for greater potency in that assay, the high end for weaker potency in that assay. Usually GI50 stands for the concentration giving 50% growth inhibition.

Chain of HDAC1 (Q13547 whole entry): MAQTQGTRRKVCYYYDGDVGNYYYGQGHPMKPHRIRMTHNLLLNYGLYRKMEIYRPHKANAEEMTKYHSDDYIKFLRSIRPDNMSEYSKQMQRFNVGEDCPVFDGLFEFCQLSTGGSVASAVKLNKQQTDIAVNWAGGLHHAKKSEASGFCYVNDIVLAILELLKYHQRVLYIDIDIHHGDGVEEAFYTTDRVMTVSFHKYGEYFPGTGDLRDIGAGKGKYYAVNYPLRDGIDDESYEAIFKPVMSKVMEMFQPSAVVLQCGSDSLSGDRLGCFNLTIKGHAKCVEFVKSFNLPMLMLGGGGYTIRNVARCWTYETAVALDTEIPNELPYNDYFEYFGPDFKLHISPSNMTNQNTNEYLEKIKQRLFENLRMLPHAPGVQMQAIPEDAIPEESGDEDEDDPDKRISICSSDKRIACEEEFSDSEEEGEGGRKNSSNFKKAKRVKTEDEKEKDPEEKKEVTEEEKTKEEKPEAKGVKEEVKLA

On to `CN1CCN(CCOc2ccc(/C=C/C(=O)NO)c(Oc3cccc(Cl)c3)c2)CC1` [Compound 68, (E)-3-(2-(3-chlorophenoxy)-4-(2-(4-methylpiperazin-1-yl)ethoxy)phenyl)-N-hydroxyacrylamide], for which the results for the IC50 on HDAC6, against HDAC8 and on HDAC1 were 100 to 1000 nM, at most 100 nM and 1000 to 10000 nM, respectively.
On the same counts, the results for `CN(C)CCOc1ccc(/C=C/C(=O)NO)c(Oc2cccc(Cl)c2)c1` [Compound 69, (E)-3-(2-(3-chlorophenoxy)-4-(2-(dimethylamino)ethoxy)phenyl)-N-hydroxyacrylamide] are 100 to 1000 nM, at most 100 nM and 100 to 1000 nM.
In the case of `O=C(/C=C/c1ccccc1Oc1cccc(F)c1)NO` [Compound 14, (E)-3-(2-(3-Fluorophenoxy)phenyl)-N-hydroxyacrylamide], in the test on Jurkat cells, the GI50 stood at 3580 nM. The IC50 on HDAC6 is 1000 to 10000 nM; against HDAC8 it was at most 100 nM; against HDAC1 it was 1000 to 10000 nM.
Consider `O=C(/C=C/c1ccc(OCCN2CCOCC2)cc1Oc1cccc(Cl)c1)NO` [Compound 67, (E)-3-(2-(3-chlorophenoxy)-4-(2-morpholinoethoxy)phenyl)-N-hydroxyacrylamide], for which the IC50 was 100 to 1000 nM on HDAC6, at most 100 nM against HDAC8 and 1000 to 10000 nM on HDAC1.
For `O=C(/C=C/c1ccccc1Oc1ccc(F)cc1)NO` [Compound 9, (E)-3-(2-(4-Fluorophenoxy)phenyl)-N-hydroxyacrylamide], the GI50 with Jurkat cells stood at 2000 nM. Further, the IC50 against HDAC6 is 1000 to 10000 nM; against HDAC8, at most 100 nM; at HDAC1, 1000 to 10000 nM.
In the case of `O=C(/C=C/c1ccccc1Oc1cccc(Cl)c1)NO` [Compound 11, (E)-3-(2-(3-Chlorophenoxy)phenyl)-N-hydroxyacrylamide], the GI50 with Jurkat cells was 1980 nM. Also, the results for the IC50 against HDAC6, on HDAC8 and on HDAC1 were 100 to 1000 nM, at most 100 nM and 1000 to 10000 nM, respectively.
On the same counts, the results for `COc1ccc(Oc2ccccc2/C=C/C(=O)NO)cc1` [Compound 10, (E)-N-hydroxy-3-(2-(4-methoxyphenoxy)phenyl)acrylamide] are 2250 nM, 100 to 1000 nM, at most 100 nM and 1000 to 10000 nM.
Take `COc1cccc(Oc2ccccc2/C=C/C(=O)NO)c1` [Compound 15, (E)-N-hydroxy-3-(2-(3-methoxyphenoxy)phenyl)acrylamide]: the GI50 in the test with Jurkat cells amounted to 3370 nM. Further, the figures for the IC50 against HDAC6, against HDAC8 and on HDAC1 were 100 to 1000 nM, at most 100 nM and 1000 to 10000 nM, respectively.
Take `O=C(/C=C/c1ccccc1Oc1ccccc1)NO` [Compound 7, (E)-N-Hydroxy-3-(2-phenoxyphenyl)acrylamide]: the results for the half-maximal inhibitory concentration (IC50) against HDAC6, on HDAC8 and against HDAC1 were 100 to 1000 nM, at most 100 nM and 1000 to 10000 nM, respectively.
As to `Cc1ccc(Oc2ccccc2/C=C/C(=O)NO)cc1` [Compound 8, (E)-3-(2-(p-Tolyloxy)phenyl)-N-hydroxyacrylamide], the GI50 in the test with Jurkat cells worked out at 6100 nM. Further, the IC50 against HDAC6 is 100 to 1000 nM; at HDAC8 it was at most 100 nM; against HDAC1, 1000 to 10000 nM.
Turning to `CC(=O)Nc1ccc(Oc2cccc(Cl)c2)c(/C=C/C(=O)NO)c1` [Compound 42, (E)-3-(5-acetamido-2-(3-chlorophenoxy)phenyl)-N-hydroxyacrylamide], the IC50 is above 10000 nM against HDAC6, at most 100 nM at HDAC8 and above 10000 nM against HDAC1.
Consider `O=C(/C=C/c1ccccc1Oc1cccnc1)NO` [Compound 16, (E)-N-Hydroxy-3-(2-(pyridin-3-yloxy)phenyl)acrylamide], for which, in the test with Jurkat cells, the GI50 is above 20000 nM. For the same compound, the IC50 was 1000 to 10000 nM against HDAC6, at most 100 nM against HDAC8 and 1000 to 10000 nM on HDAC1.
`O=C(/C=C/c1ccccc1OC1CCN(C(=O)c2ccccc2)CC1)NO` [Compound 20, (E)-3-(2-(1-benzoylpiperidin-4-yloxy)phenyl)-N-hydroxyacrylamide]: in the test with Jurkat cells, the GI50 turned out to be 9700 nM. The 50% inhibitory concentration (IC50) against HDAC6 was 1000 to 10000 nM; against HDAC8 it was at most 100 nM; against HDAC1, 1000 to 10000 nM.
For `O=C(/C=C/c1ccccc1Oc1ccc(Cl)cc1)NO` [Compound 6, (E)-3-(2-(4-chlorophenoxy)phenyl)-N-hydroxyacrylamide], in the test on Jurkat cells, the GI50 was determined as 1430 nM. For the same compound, the IC50 at HDAC6 was 1000 to 10000 nM; against HDAC8, at most 100 nM; against HDAC1, 1000 to 10000 nM.
Take `O=C(/C=C/c1cc(NCc2cccnc2)ccc1Oc1ccc(F)cc1)NO` [Compound 49, (E)-3-(2-(4-fluorophenoxy)-5-(pyridin-3-ylmethylamino)phenyl)-N-hydroxyacrylamide]: the IC50 was 1000 to 10000 nM against HDAC6, at most 100 nM against HDAC8 and above 10000 nM on HDAC1.
In the case of `Cc1cccc(Oc2ccccc2/C=C/C(=O)NO)c1` [Compound 13, (E)-N-hydroxy-3-(2-(m-tolyloxy)phenyl)acrylamide], in the test with Jurkat cells, the 50% growth inhibitory concentration (GI50) was 2500 nM. Further, the values for the IC50 on HDAC6, at HDAC8 and against HDAC1 were 1000 to 10000 nM, at most 100 nM and 1000 to 10000 nM, respectively.
As to `O=C(/C=C/c1ccccc1Oc1ccncc1)NO` [Compound 17, (E)-N-Hydroxy-3-(2-(pyridin-4-yloxy)phenyl)acrylamide], the IC50 against HDAC6 was above 10000 nM; on HDAC8, at most 100 nM; against HDAC1 it was above 10000 nM.
For `O=C(/C=C/c1ccc(OCc2cccnc2)cc1Oc1cccc(Cl)c1)NO` [Compound 59, (E)-3-(2-(3-chlorophenoxy)-4-(pyridin-3-ylmethoxy)phenyl)-N-hydroxyacrylamide], the results for the half-maximal inhibitory concentration (IC50) against HDAC6, on HDAC8 and against HDAC1 were 100 to 1000 nM, at most 100 nM and 1000 to 10000 nM, respectively.
On the same counts, the results for `COCCOc1ccc(/C=C/C(=O)NO)c(Oc2ccc(Cl)c(Cl)c2)c1` [Compound 80, (E)-3-(2-(3,4-dichlorophenoxy)-4-(2-methoxyethoxy)phenyl)-N-hydroxyacrylamide] are 1000 to 10000 nM, at most 100 nM and above 10000 nM.

Values taken from patent publication US20150045367A1, “CINNAMIC ACID HYDROXYAMIDES AS INHIBITORS OF HISTONE DEACETYLASE 8” (PHARMACYCLICS, INC., priority 2011, published 2015).
